Experimental data as given in the NIST ThermoML archive (doi:10.1021/je034177v).

Experiment: xn = mol fraction of the nth substance listed
Conditions: 101 kPa, Liquid; for speed of sound: Pulse-echo method; for mass density: Vibrating tube method

ClCCCCCCCl [1,6-dichlorohexane] + CCCCCCCCCCCC
Conditions	mass density [kg/m3]	speed of sound [m/s]
278.15 K, x1 = 0.0498	769.76	1355
278.15 K, x1 = 0.1003	780.41	1353.3
278.15 K, x1 = 0.1497	791.41	1352
278.15 K, x1 = 0.2527	815.84	1350.4
278.15 K, x1 = 0.4017	855.12	1350.4
278.15 K, x1 = 0.502	884.56	1351.9
278.15 K, x1 = 0.6	916.3	1355.1
278.15 K, x1 = 0.7011	952.18	1360.1
278.15 K, x1 = 0.7986	990.33	1366.8
278.15 K, x1 = 0.8998	1034.17	1376.1
278.15 K, x1 = 0.9493	1057.53	1381.5
278.15 K, x1 = 0.9691	1067.22	1383.7
278.15 K, x1 = 1	1082.7	1387.4
283.15 K, x1 = 0.0498	766.11	1335.5
283.15 K, x1 = 0.1003	776.72	1333.9
283.15 K, x1 = 0.1497	787.68	1332.7
283.15 K, x1 = 0.2527	812	1331.2
283.15 K, x1 = 0.4017	851.13	1331.4
283.15 K, x1 = 0.502	880.48	1333.3
283.15 K, x1 = 0.6	912.1	1336.7
283.15 K, x1 = 0.7011	947.86	1342
283.15 K, x1 = 0.7986	985.89	1348.9
283.15 K, x1 = 0.8998	1029.59	1358.4
283.15 K, x1 = 0.9493	1052.88	1364
283.15 K, x1 = 0.9691	1062.53	1366.2
283.15 K, x1 = 1	1077.97	1370
288.15 K, x1 = 0.0498	762.46	1315.7
288.15 K, x1 = 0.1003	773.04	1314.3
288.15 K, x1 = 0.1497	783.94	1313.2
288.15 K, x1 = 0.2527	808.17	1311.8
288.15 K, x1 = 0.4017	847.16	1312.4
288.15 K, x1 = 0.502	876.39	1314.5
288.15 K, x1 = 0.6	907.89	1318.1
288.15 K, x1 = 0.7011	943.53	1323.6
288.15 K, x1 = 0.7986	981.42	1330.7
288.15 K, x1 = 0.8998	1024.98	1340.4
288.15 K, x1 = 0.9493	1048.19	1346.1
288.15 K, x1 = 0.9691	1057.82	1348.4
288.15 K, x1 = 1	1073.22	1352.3
293.15 K, x1 = 0.0498	758.82	1296.3
293.15 K, x1 = 0.1003	769.35	1294.9
293.15 K, x1 = 0.1497	780.2	1293.9
293.15 K, x1 = 0.2527	804.33	1292.7
293.15 K, x1 = 0.4017	843.16	1293.5
293.15 K, x1 = 0.502	872.29	1295.9
293.15 K, x1 = 0.6	903.68	1299.7
293.15 K, x1 = 0.7011	939.19	1305.4
293.15 K, x1 = 0.7986	976.96	1312.8
293.15 K, x1 = 0.8998	1020.39	1322.7
293.15 K, x1 = 0.9493	1043.52	1328.4
293.15 K, x1 = 0.9691	1053.11	1330.9
293.15 K, x1 = 1	1068.47	1334.8
298.15 K, x1 = 0.0498	755.16	1276.8
298.15 K, x1 = 0.1003	765.66	1275.5
298.15 K, x1 = 0.1497	776.45	1274.6
298.15 K, x1 = 0.2527	800.48	1273.7
298.15 K, x1 = 0.4017	839.16	1274.7
298.15 K, x1 = 0.502	868.18	1277.3
298.15 K, x1 = 0.6	899.46	1281.3
298.15 K, x1 = 0.7011	934.87	1287.3
298.15 K, x1 = 0.7986	972.49	1294.8
298.15 K, x1 = 0.8998	1015.8	1304.9
298.15 K, x1 = 0.9493	1038.85	1310.8
298.15 K, x1 = 0.9691	1048.42	1313.2
298.15 K, x1 = 1	1063.74	1317.3
303.15 K, x1 = 0.0498	751.5	1257.6
303.15 K, x1 = 0.1003	761.96	1256.4
303.15 K, x1 = 0.1497	772.7	1255.5
303.15 K, x1 = 0.2527	796.64	1254.7
303.15 K, x1 = 0.4017	835.16	1256.1
303.15 K, x1 = 0.502	864.08	1258.8
303.15 K, x1 = 0.6	895.24	1263.1
303.15 K, x1 = 0.7011	930.52	1269.2
303.15 K, x1 = 0.7986	968.02	1277
303.15 K, x1 = 0.8998	1011.2	1287.3
303.15 K, x1 = 0.9493	1034.18	1293.3
303.15 K, x1 = 0.9691	1043.71	1295.8
303.15 K, x1 = 1	1059	1299.9
308.15 K, x1 = 0.0498	747.81	1238.5
308.15 K, x1 = 0.1003	758.26	1237.4
308.15 K, x1 = 0.1497	768.93	1236.6
308.15 K, x1 = 0.2527	792.76	1236
308.15 K, x1 = 0.4017	831.14	1237.6
308.15 K, x1 = 0.502	859.96	1240.5
308.15 K, x1 = 0.6	891.01	1245
308.15 K, x1 = 0.7011	926.17	1251.3
308.15 K, x1 = 0.7986	963.55	1259.3
308.15 K, x1 = 0.8998	1006.61	1269.8
308.15 K, x1 = 0.9493	1029.52	1276
308.15 K, x1 = 0.9691	1039	1278.5
308.15 K, x1 = 1	1054.25	1282.7
313.15 K, x1 = 0.0498	744.13	1219.6
313.15 K, x1 = 0.1003	754.53	1218.5
313.15 K, x1 = 0.1497	765.15	1217.9
313.15 K, x1 = 0.2527	788.89	1217.5
313.15 K, x1 = 0.4017	827.13	1219.3
313.15 K, x1 = 0.502	855.84	1222.4
313.15 K, x1 = 0.6	886.78	1227
313.15 K, x1 = 0.7011	921.82	1233.6
313.15 K, x1 = 0.7986	959.07	1241.8
313.15 K, x1 = 0.8998	1002	1252.5
313.15 K, x1 = 0.9493	1024.85	1258.8
313.15 K, x1 = 0.9691	1034.3	1261.3
313.15 K, x1 = 1	1049.5	1265.7
318.15 K, x1 = 0.0498	740.46	1200.9
318.15 K, x1 = 0.1003	750.82	1199.9
318.15 K, x1 = 0.1497	761.37	1199.3
318.15 K, x1 = 0.2527	785.03	1199
318.15 K, x1 = 0.4017	823.12	1201.2
318.15 K, x1 = 0.502	851.72	1204.4
318.15 K, x1 = 0.6	882.55	1209.2
318.15 K, x1 = 0.7011	917.48	1216
318.15 K, x1 = 0.7986	954.61	1224.3
318.15 K, x1 = 0.8998	997.44	1235.3
318.15 K, x1 = 0.9493	1020.2	1241.7
318.15 K, x1 = 0.9691	1029.61	1244.3
318.15 K, x1 = 1	1044.78	1248.7
323.15 K, x1 = 0.0498	736.76	1182.4
323.15 K, x1 = 0.1003	747.09	1181.4
323.15 K, x1 = 0.1497	757.6	1180.9
323.15 K, x1 = 0.2527	781.15	1180.8
323.15 K, x1 = 0.4017	819.09	1183.1
323.15 K, x1 = 0.502	847.59	1186.5
323.15 K, x1 = 0.6	878.32	1191.6
323.15 K, x1 = 0.7011	913.12	1198.5
323.15 K, x1 = 0.7986	950.13	1207
323.15 K, x1 = 0.8998	992.83	1218.2
323.15 K, x1 = 0.9493	1015.52	1224.7
323.15 K, x1 = 0.9691	1024.9	1227.4
323.15 K, x1 = 1	1040.03	1231.8
328.15 K, x1 = 0.0498	733.07	1163.9
328.15 K, x1 = 0.1003	743.36	1163
328.15 K, x1 = 0.1497	753.83	1162.6
328.15 K, x1 = 0.2527	777.28	1162.6
328.15 K, x1 = 0.4017	815.09	1165.2
328.15 K, x1 = 0.502	843.49	1168.8
328.15 K, x1 = 0.6	874.11	1174
328.15 K, x1 = 0.7011	908.81	1181.1
328.15 K, x1 = 0.7986	945.71	1189.9
328.15 K, x1 = 0.8998	988.3	1201.2
328.15 K, x1 = 0.9493	1010.92	1207.8
328.15 K, x1 = 0.9691	1020.27	1210.5
328.15 K, x1 = 1	1035.37	1215.1
